Results reported in patent publication US8222294B2, “Combinations of an anti emetic agent and an enkephalinase inhibitor” (Bioproject, priority 2004, dated 2012).
Entries after “also recorded” stand apart in the source; their conditions may differ. Like-named read-outs stand apart in the source and are kept apart here.

How the values were obtained:
[1] = test system: castor oil-induced diarrhoea; test: castor oil-induced diarrhoea in rats; format: in vivo
Description: The outstanding activity of the combinations of the invention was evidenced on an animal model of experimental diarrhoea. A combination of the invention was evaluated on the castor oil-induced diarrhoea in rats, according to Niemegeers et al. ([…]. (Drug Res), 1974, 24 No. 10). Rats received ondansetron (0.1 mg/kg, p.o.) and racecadotril (40 mg/kg, p.o.) administered together. […] As comparative examples, ondansetron and racecadotril were also administered alone at the same dosages.

[2] = test system: L.P.S. typhimurium-induced diarrhoea; test: L.P.S. typhimurium-induced diarrhoea; format: in vivo; settings: dexecadotril 0.1 mg/kg alone
[3] = test system: abdominal pain (abdominal cramps elicited by rectal distention); test: abdominal cramps elicited by rectal distention in trinitrobenzenesulfonic acid-pretreated rats; format: in vivo; settings: administered alone
Excerpt: The combinations of the invention involve a synergy against abdominal pain as the authors of the present invention have discovered using a classical model of abdominal pain in rodents (Morteau et al., Gastroenterology, 1993, 104, 47). Rats were […] trinitrobenzenesulfonic acid to induce intestinal inflammation and pain sensitivity, as assessed by evaluation of the abdominal cramps elicited by rectal distention.

[4] = test system: cytochrome P 450 subtypes; test: interaction with cytochrome P 450 subtypes; format: in vitro ADME
drug metabolism pathway = format: in vitro ADME; settings: enkephalinase inhibitors
E. coli toxins = settings: cited from earlier work
[5] = in vivo; cited from earlier work
[6] = 5-HT3 receptor inhibitors; cited from earlier work
Salmonella = settings: cited from earlier work
gastroenteritis = settings: cited from earlier work
colonic transit = colonic transit in rodents; format: in vivo; settings: enkephalinase inhibitor alone
Excerpt: This effect is blocked by co-administration of ondansetron. Since the transit is already strongly accelerated in gastroenteritis, the combinations of the present invention allow the antisecretory pro-absorptive activity of enkephalinase inhibitors to be exerted for a longer time upon the watery intestinal lumen content, thus resulting in a synergic antidiarrheal effect.

abdominal cramps = settings: via protection of endogenous opioid peptides; cited from earlier work
[7] = racecadotril 40 mg/kg p.o. alone

Compound | antidiarrheal activity ([1]; dexecadotril 0.1 mg/kg alone) | antidiarrheal activity [2] | prevention of pain manifestations [3] | interaction with cytochrome P 450 subtypes [4] | metabolism pathway (drug metabolism pathway) | antisecretory activity (E. coli toxins) | plasma half-life [5] [h] | metabolism pathway [6] | antidiarrheal activity ([1]; ondansetron 0.1 mg/kg p.o. alone) | antidiarrheal activity ([1]; ondansetron 1 mg/kg alone) | prevention of hypersecretion (Salmonella) | diarrhoea (gastroenteritis) | emesis (gastroenteritis; particularly in children) | duration of protection [1, 7] [h] | protection against diarrhoea [1, 7] | effect on colonic transit (colonic transit) | abdominal pain (gastroenteritis) | antinociceptive effect (abdominal cramps)
CC(=O)SC[C@H](Cc1ccccc1)C(=O)NCC(=O)OCc1ccccc1 [dexecadotril] | an antidiarrheal activity; also recorded: only partially inactive | an antidiarrheal activity | partially prevent | do not significantly interact | mainly occurs via S-methylation | active | – | – | – | – | – | – | – | – | – | – | – | –
CN1C2CCCC1CC(NC(=O)c1nn(C)c3ccccc13)C2 (stereo not drawn) [granisetron] | – | – | – | – | – | – | ~3 | oxidation by various cytochrome P 450 subtypes | – | – | – | – | – | – | – | – | – | –
Cc1nccn1CC1CCc2c(c3ccccc3n2C)C1=O (stereo not drawn) [ondansetron] | – | – | partially prevent | – | – | not | ~3 | oxidation by various cytochrome P 450 subtypes | inactive | inactive | prevents the hypersecretion | not significantly affected or even increased; also recorded: fail to affect diarrhoea; also recorded: increase its duration | significantly reduced | – | – | – | – | –
CC(=O)SCC(Cc1ccccc1)C(=O)NCC(=O)OCc1ccccc1 (stereo not drawn) [racecadotril] | – | – | partially prevent | do not significantly interact | mainly occurs via S-methylation | active | ~3 | – | – | – | – | – | – | 4 | partial protection | tend to accelerate colonic transit | significantly diminished | partial antinociceptive effect
